These results are taken from patent US7217704B2, “LPA receptor agonists and antagonists and methods of use” (The University of Tennessee Research Foundation, priority 2003, dated 2007).

In general, EC50 refers to the concentration at which the effect is half-maximal. As usually defined, the IC50 is the point on the concentration scale where inhibition reaches its midpoint. By Ki is commonly meant the dissociation constant of the complex between target and ligand, obtained from inhibition or displacement. A word on the Emax: it is the size of the effect at its maximum, as opposed to the concentration needed.

Assay [1] addresses T1, LPA2 (Homo sapiens, UniProt Q9HBW0).
T1 construct: expressed in transfected cells
Description: Ca2+ transients (agonism / inhibition of LPA response) in RH7777 cells stably expressing LPA2. The class given is cell-based. Conditions: for effect at LPA2 in words: Ca2+ transients. How it is done:
(§1) The culture medium (DMEM containing 10% FBS) was then replaced with modified Krebs solution (120 mM NaCl, 5 mM KCl, 0.62 mM MgSO4, 1.8 mM CaCl2, 10 mM HEPES, 6 mM glucose, pH 7.4) and the cells were serum starved for 6–8 hours (12 h for PC-3 cells). Cells were loaded with Fura-2 AM for 35 minutes in modified Krebs medium. The Fura-2 was removed before loading the plate in the FlexStation instrument by replacing the medium once again with 100 μl modified Krebs medium/well. Plates were incubated for 4 minutes in the instrument to allow for warming to 37° C. Changes in intracellular Ca^2+ concentration were monitored by measuring the ratio of emitted light intensity at 520 nm in response to excitation by 340 nm and 380 nm wavelength lights, respectively. Each well was monitored for 80–120 seconds. […] Time courses were recorded using the SoftMax Pro software (Molecular Devices, Sunnyvale, Calif.). Ca^2+ transients were quantified automatically by calculating the difference between maximum and baseline ratio values for each well.
(§2) Each FAP analog was tested for the ability to induce Ca^2+ transients in RH7777 cells transfected with LPA1-3 receptors (agonism), as well as the ability to inhibit LPAinduced Ca^2+ transients in the same cells (antagonism) (Table 3).

Assay [2] has as its target T2, LPA1 (Homo sapiens, UniProt Q92633).
T2 construct: expressed in transfected cells
Conditions: original assay, literature; read-out: reported Ki at LPA1; cited from earlier work.

The target of assay [3] is T3, LPA3 (Homo sapiens, UniProt Q9UBY5).
T3 construct: expressed in transfected cells
T3 sequence (Q9UBY5 1-353): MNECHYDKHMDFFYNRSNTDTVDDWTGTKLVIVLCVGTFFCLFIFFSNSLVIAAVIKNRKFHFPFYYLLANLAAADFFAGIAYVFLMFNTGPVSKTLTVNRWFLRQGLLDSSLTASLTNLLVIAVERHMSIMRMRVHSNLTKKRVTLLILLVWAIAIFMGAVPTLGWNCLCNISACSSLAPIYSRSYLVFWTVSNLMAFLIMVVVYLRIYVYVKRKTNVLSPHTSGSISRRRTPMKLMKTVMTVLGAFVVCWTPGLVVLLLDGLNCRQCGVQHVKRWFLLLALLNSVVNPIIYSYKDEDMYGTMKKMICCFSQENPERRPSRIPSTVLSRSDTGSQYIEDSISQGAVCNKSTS
Description: Ca2+ transients (agonism / inhibition of LPA response) in RH7777 cells stably expressing LPA3. The conditions noted are these: for Ki: read-out: LPA3 (Ki). It counts as cell-based. How it is done:
as §1, §2

Assay [4] concerns the target T2, LPA1. Description: Ca2+ transients (agonism / inhibition of LPA response) in RH7777 cells stably expressing LPA1. It counts as cell-based. The conditions noted are these: for effect at LPA1 in words: Ca2+ transients. The procedure: as §1, §2
Another assay concerns the target T4, PPARγ (Homo sapiens, UniProt P37231).
T4 sequence (P37231 1-505): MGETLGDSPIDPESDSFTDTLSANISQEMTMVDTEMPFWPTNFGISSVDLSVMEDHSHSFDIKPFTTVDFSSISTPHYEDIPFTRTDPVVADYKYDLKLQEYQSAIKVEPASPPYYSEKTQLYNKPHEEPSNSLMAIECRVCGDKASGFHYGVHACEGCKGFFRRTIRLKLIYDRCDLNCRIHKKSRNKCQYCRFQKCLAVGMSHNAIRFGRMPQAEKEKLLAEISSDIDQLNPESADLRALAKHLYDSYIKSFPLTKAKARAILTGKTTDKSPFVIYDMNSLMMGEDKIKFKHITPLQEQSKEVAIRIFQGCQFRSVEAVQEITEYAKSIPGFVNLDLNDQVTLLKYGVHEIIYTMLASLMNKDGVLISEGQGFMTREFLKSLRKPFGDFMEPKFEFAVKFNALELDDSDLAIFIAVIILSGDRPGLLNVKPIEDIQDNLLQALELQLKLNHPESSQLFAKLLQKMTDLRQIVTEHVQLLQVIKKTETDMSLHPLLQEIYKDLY
Description: PPARγ activation in CV1 cells, PPRE-Acox-Rluc reporter gene assay. Conditions: 10 μM test compound, 20 h. On the technique in general: A reporter such as luciferase makes a cellular process visible.

Assay [5] has as its target T3, LPA3. The conditions noted are these: original assay, literature; read-out: reported Ki at LPA3; cited from earlier work.
The subject of a further assay is IEC-6 cells. Description: Camptothecin-induced DNA fragmentation (apoptosis) in IEC-6 cells, ELISA. The class given is cell-based. The conditions noted are these: Camptothecin 20 μM, LPA and FAP12 at 10 μM. How it is done:
The experimental procedure utilized was substantially the same as that reported in Deng et al. (2002) and Deng et al., (2003).
Basically, IEC-6 cells were grown in DMEM medium supplemented with 5% fetal bovine serum, insulin (10 μg/ml), gentamycin sulfate (50 μg/ml), and incubated at 37° C. in a humidified 90% air–10% CO2 atmosphere. Medium was changed every other day. Sub-confluent cells were washed twice and replaced by DMEM without serum the night before experiments.
Damage and IEC-6 cell apoptosis was induced via either γ-irradiation or chemotherapy. 20 Gy single dose of [^137Cs] source γ-irradiation was used in all experiments. […] In some experiments, LPA was added at different times before or after irradiation. Treatment with 20 μM camptothecin of IEC-6 cells induces DNA fragmentation as measured by the ELISA assay at 16 h after treatment. DNA fragmentation was quantified using the Cell Death Detection ELISA kit from Boehringer (Indianapolis, Ind.) according to the instructions of the manufacturer. Samples were run in triplicate. A duplicate of the sample was used to quantify protein concentration using the BCA kit from Pierce (Rockford, Ill.). DNA fragmentation was expressed as absorbance units per μg protein per minute.

In the next assay the test system is PC-3 cells. Description: Ca2+ transients in PC-3 cells endogenously expressing LPA1-3. The class given is cell-based, human. The conditions noted are these: for IC50: read-out: PC-3 IC50. The procedure: as §1
We tested the FAP analogs in PC-3 cells, which unlike the transfected RH7777 cells endogenously express LPA1-3 receptors.

The next assay deals with γ-irradiated mice. Description: Crypt survival in small intestine after whole body γ-irradiation. Conditions: 200 μM into the stomach 2 h prior irradiation, crypts counted 3.5 days after irradiation. It counts as in vivo. How it is done: The experimental procedure utilized was substantially the same as that reported in Deng et al. (2002).
The whole body irradiation (WBI) protocol has been reviewed and approved by the ACUC Committee of the University of Tennessee Health Sciences Center. ICR strain male mice (Harlan Laboratories, body weight 30–33 g) on a 12 h light/dark cycle and otherwise maintained on a standard laboratory chow ad libitum were starved for 16 h prior to treatment. WBI was done with a 12 Gy or 15 Gy dose using Cs137 source at a dose rate of 1.9 Gy per minute. Groups of four mice received either 250 μl of 1 mM LPA complexed with 100 μM BSA dissolved in Hanks basal salt solution or the BSA vehicle alone 2 h prior to irradiation.
For detection of the apoptotic bodies, mice were euthanized with carbon dioxide inhalation 4 h after irradiation and the small intestine was dissected and fixed in neutral phosphate buffered isotonic 10% formalin. Four ˜3- to 4-mm long segments from the small intestine were embedded in paraffin, 5 μm thick sections were cut and stained with hematoxilin and eosin. The number of surviving crypts was counted 3.5 days after irradiation.

For assay [6], the target named is T2, LPA1. Conditions: GTPγS loading assay, HEK293T; read-out: reported Ki at LPA1; cited from earlier work.
For assay [7], the target named is T3, LPA3. Conditions: GTPγS loading assay, HEK293T; read-out: reported Ki at LPA3; cited from earlier work.
The target of assay [8] is T1, LPA2. The conditions noted are these: GTPγS loading assay, HEK293T; read-out: reported Ki at LPA2; cited from earlier work.
Setting [9] is: induction of Ca2+ transients, RH7777 cells expressing LPA2, read-out: LPA2 EC50.
The mark [10] stands for this setting: inhibition of LPA-induced Ca2+ transients, RH7777 cells expressing LPA2, read-out: LPA2 IC50.
[11] abbreviates: induction of Ca2+ transients, RH7777 cells expressing LPA3, read-out: LPA3 EC50.
Setting [12] is: inhibition of LPA-induced Ca2+ transients, RH7777 cells expressing LPA3.
[13] abbreviates: inhibition of LPA-induced Ca2+ transients, RH7777 cells expressing LPA3, read-out: LPA3 IC50.
Where [14] appears, read: induction of Ca2+ transients, RH7777 cells expressing LPA1, read-out: LPA1 EC50.
Where [15] appears, read: inhibition of LPA-induced Ca2+ transients, RH7777 cells expressing LPA1, read-out: LPA1 IC50.
The mark [16] stands for this setting: inhibition of LPA-induced Ca2+ transients, PC-3 cells.

“Also recorded” adds a separate entry of the source. Read-outs that look alike come from different tables or passages of the source. Where only a bound is given, the exact number is not on record here.

T1 sequence (Q9HBW0 whole entry): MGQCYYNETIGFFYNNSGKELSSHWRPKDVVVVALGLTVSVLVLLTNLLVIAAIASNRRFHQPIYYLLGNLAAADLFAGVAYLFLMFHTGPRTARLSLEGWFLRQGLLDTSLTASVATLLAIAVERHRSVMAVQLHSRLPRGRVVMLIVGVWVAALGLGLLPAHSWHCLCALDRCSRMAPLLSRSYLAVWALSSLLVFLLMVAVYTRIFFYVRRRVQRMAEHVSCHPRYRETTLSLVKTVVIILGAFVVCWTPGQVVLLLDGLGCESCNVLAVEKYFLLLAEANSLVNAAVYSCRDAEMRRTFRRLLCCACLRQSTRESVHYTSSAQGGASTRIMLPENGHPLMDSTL
T2 sequence (Q92633 whole entry): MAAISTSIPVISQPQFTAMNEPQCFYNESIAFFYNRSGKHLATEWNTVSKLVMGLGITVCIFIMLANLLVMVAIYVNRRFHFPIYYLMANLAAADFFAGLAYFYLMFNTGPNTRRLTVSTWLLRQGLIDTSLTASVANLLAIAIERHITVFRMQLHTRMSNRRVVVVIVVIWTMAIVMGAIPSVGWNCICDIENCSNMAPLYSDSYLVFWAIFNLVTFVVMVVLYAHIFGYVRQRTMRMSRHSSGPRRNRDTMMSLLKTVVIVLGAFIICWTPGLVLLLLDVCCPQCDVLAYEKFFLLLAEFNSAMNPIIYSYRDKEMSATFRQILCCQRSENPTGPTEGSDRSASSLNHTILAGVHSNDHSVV
Description for PPARγ: Comparing the effects with the Rosiglitazone, a known PPARγ agonist, CV1 cells were treated with 1% DMSO or 10 μM of test compound dissolved in DMSO for 20 h. Luciferase and β-galactosidase activities (mean±SEM) were measured in the cell lysate (n=4). *P<0.05 and **P<0.01, significant differences over vehicle control.
The assay of PPARγ activation in CV1 cells was run as reported in Zhang et al. Briefly, CV-1 cells were plated in 96-well plates (5×10^3 cells per well) in Dulbecco's modified Eagle's medium supplemented with 10% fetal bovine serum. […] Samples were run in quadruplicate and the mean±standard errors were calculated. Data are representative of at least two independent transfections. Student's t-test was used for null hypothesis testing and P<0.05 was considered transfection, cells were treated with 1% FBS supplemented OptiMEMI (Invitrogen) containing DMSO or 10 μM test compound dissolved in DMSO for 20 h. Luciferase and β-galactosidase activities were measured with the Steady-Glo® Luciferase Assay significant (in the figures P<0.05 is denoted by * and P<0.01 is **).

On to `CCCCCCCC(=O)OC[C@H](COP(=O)(O)OP(=O)(O)O)OC(=O)CCCCCCC` [DGPP, reference compound], for which the half-maximal effective concentration (EC50) at LPA2 [1] (setting [9]), on LPA3 [3] (setting [11]) and on LPA1 [4] (setting [14]) was > 30 µM in each case. Moreover, the values for the concentration for half-maximal inhibition (IC50) on LPA2 [1] (setting [10]), at LPA3 [3] (setting [13]) and on LPA1 [4] (setting [15]) were > 30 µM, 454 nM and 5.5 µM, respectively. For the same molecule, the Ki on LPA1 [2] is 6.6 µM; at LPA3 [3] (setting [12]), 202 nM; at LPA1 [4] (RH7777 cells expressing LPA1), 4300 nM; on LPA3 [5], 106 nM. For the same molecule, at PPARγ, the “PPARγ activation (PPRE-Acox-Rluc reporter) in words” value (“PPARγ activation” below) is reported as “can activate PPRE-Acox-Rluc reporter”.
In the case of `CCCCCCCCC=CCCCCCCCCOP(O)(O)=S` [Compound 8g, Thiophosphoric acid O-octadec-9-enyl ester], the concentration giving a half-maximal response (EC50) was 0.244 µM at LPA2 [1], 0.546 µM on LPA3 [3] and 0.193 µM at LPA1 [4]. Besides, the half-inhibitory concentration (IC50) against LPA2 [1] was > 30 µM; against LPA3 [3], > 30000 nM; at LPA1 [4], > 30 µM. On LPA2 [1] (RH7777 cells expressing LPA2), the “effect at LPA2 in words” value is given as “agonist”. For the same molecule, the “inhibition of Camptothecin-induced DNA fragmentation in words” value in the assay with IEC-6 cells was “comparable to that of LPA but supersedes it at concentrations above 3 μM; also recorded: dose-dependently inhibit DNA fragmentation”. The “effect in PC-3 cells in words” value in the assay with PC-3 cells (Ca2+ transients, PC-3 cells) is “no inhibition of LPA response”. Also, the maximal response (Emax) amounted to 30% with PC-3 cells (Homo sapiens, PC-3, read-out: PC-3 (Emax)) and 80% on LPA1 [4] (RH7777, read-out: LPA1 (Emax)). In addition, the “effect at LPA3 in words” value on LPA3 [3] (Ca2+ transients, RH7777 cells expressing LPA3) was “agonist”. Further, the “effect at LPA1 in words” value at LPA1 [4] (RH7777 cells expressing LPA1) is “agonist”. For the same molecule, at LPA1 [4] (maximal efficacy of the drug/maximal efficacy of LPA 18:1), the “LPA1 (Emax)” value was determined as 80%. The “crypt survival in words” value with γ-irradiated mice was “enhances crypt survival”; in the assay with γ-irradiated mice (listed as FAP 18:1 d9) it was “dose-dependent enhancement of crypt survival”; in the assay with γ-irradiated mice (listed as FAP 18:1d9), “significantly (P>0.01) enhanced crypt survival; also recorded: present in the jejunum and ileum and exceeded that of LPA; also recorded: dose-dependent crypt survival in the ileum and jejunum”.
Regarding `CCCCCCCC/C=C\CCCCCCCC(=O)N[C@@H](COP(=O)(O)O)Cc1ccc(OCc2ccccc2)cc1` [VPC12249, reference compound], the “effect at LPA2 in words” value on LPA2 [1] (RH7777 cells expressing LPA2) is reported as “did not affect LPA signaling”. The EC50 on LPA2 [1] (setting [9]), at LPA3 [3] (setting [11]) and on LPA1 [4] (setting [14]) was > 30 µM throughout. Moreover, the half-maximal inhibitory concentration (IC50) at LPA2 [1] (setting [10]) was > 30 µM; with PC-3 cells (setting [16]), > 10 µM; on LPA3 [3] (setting [13]), 1190 nM; on LPA1 [4] (setting [15]), > 10 µM. Also, the inhibition constant (Ki) on LPA3 [3] (setting [12]) is 588 nM; on LPA1 [6], 137 nM; on LPA3 [7], 428 nM. Besides, the “effect at LPA1 in words” value at LPA1 [4] (RH7777 cells expressing LPA1) is listed as “weak inhibitor”. The “PPARγ activation” value on PPARγ is on record as “can activate PPRE-Acox-Rluc reporter; also recorded: exception”.
In the case of `Cc1noc(-c2ccc(CSCCC(=O)O)cc2)c1NC(=O)OC(C)c1ccccc1Cl` (stereo not shown) [Ki16425, reference compound], the EC50 at LPA2 [1] (setting [9]), on LPA3 [3] (setting [11]) and at LPA1 [4] (setting [14]) was > 30 µM throughout. Further, the concentration for half-maximal inhibition (IC50) was > 30 µM on LPA2 [1] (setting [10]), 3.38 µM in the assay with PC-3 cells (setting [16]), 301 nM at LPA3 [3] (setting [13]) and 0.762 µM at LPA1 [4] (setting [15]). Also, the Ki is 1740 nM with PC-3 cells (setting [16]); 148 nM on LPA3 [3] (setting [12]); 425 nM at LPA1 [4] (inhibition of LPA-induced Ca2+ transients, RH7777 cells expressing LPA1); 5.6 µM at LPA2 [8]; 250 nM at LPA1 [6]; 360 nM at LPA3 [7]. Also, the “PPARγ activation” value on PPARγ is “can activate PPRE-Acox-Rluc reporter”.
